{"source": "paper PMC3924858", "about": "(Journal of medicinal chemistry, 2013)", "biological_target": "human mGlu5 receptor (Homo sapiens, UniProt P41594)", "sequence (P41594 21-1180 isoform P41594-2 limits assumed)": "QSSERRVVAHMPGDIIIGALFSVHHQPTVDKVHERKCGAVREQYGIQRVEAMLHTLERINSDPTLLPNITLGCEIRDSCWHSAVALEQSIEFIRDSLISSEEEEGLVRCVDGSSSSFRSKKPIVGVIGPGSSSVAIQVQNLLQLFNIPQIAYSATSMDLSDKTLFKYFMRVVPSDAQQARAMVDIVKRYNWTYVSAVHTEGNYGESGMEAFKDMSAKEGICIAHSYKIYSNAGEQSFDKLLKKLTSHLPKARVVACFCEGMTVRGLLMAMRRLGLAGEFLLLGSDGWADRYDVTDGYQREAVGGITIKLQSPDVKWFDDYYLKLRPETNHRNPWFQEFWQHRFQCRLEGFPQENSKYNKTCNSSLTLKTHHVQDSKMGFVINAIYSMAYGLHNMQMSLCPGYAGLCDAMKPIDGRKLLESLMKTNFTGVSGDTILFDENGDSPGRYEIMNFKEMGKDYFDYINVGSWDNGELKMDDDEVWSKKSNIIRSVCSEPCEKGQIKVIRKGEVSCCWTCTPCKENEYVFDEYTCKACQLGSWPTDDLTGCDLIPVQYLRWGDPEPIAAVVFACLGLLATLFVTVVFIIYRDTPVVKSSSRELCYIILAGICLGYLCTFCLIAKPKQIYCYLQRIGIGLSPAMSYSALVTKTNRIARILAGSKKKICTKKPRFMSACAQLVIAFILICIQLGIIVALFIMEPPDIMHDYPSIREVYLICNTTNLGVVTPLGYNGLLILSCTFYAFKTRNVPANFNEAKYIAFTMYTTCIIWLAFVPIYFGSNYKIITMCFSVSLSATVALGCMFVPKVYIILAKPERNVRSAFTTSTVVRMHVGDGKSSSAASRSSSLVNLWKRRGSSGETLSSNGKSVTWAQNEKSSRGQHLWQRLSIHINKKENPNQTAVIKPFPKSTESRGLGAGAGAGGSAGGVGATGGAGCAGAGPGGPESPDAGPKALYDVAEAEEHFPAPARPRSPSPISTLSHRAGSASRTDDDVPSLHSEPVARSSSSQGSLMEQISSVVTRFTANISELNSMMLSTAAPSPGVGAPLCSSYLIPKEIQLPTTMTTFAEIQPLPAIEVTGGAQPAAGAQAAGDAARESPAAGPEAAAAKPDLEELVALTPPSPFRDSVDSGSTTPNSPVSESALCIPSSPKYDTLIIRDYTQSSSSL", "data": [{"compound": "O=C1c2sc(COc3ccccc3)nc2CCN1c1ccc(F)cn1", "note": "[16p, 5-(5-Fluoro-pyridin-2-yl)-2-phenoxymethyl-6,7-dihydro-5H-thiazolo[5,4-c]pyridin-4-one]", "values": [{"measurement": "Glu Max", "result": "94 (89-99) %"}]}]}
